Experimental data published in PubChem BioAssay AID330 (DTP/NCI, 2004).
Several values for one entry are separate records, joined by “and”; a condition that tells them apart may be missing. Identical values can stand only once. Inconclusive results and toxic doses are left out. How the source made its calls: active means survival T/C of 150% or more; inactive means T/C below 125% in these data. Bridge positions count the residues as written; N and C are the ends. Square brackets hold non-standard residues; d marks the D form. Peptide text beside a SMILES is read from it. I, II: the chains in the order shown. * marks the point of attachment. Cbz = O=C(OCc1ccccc1)*; Nva = CCC[CH](N)C(=O)O

Tested on: P388 leukemia ip, CD2F1 mice, survival T/C
Experiment: NCI In Vivo Anticancer Drug Screen. Data for tumor model P388 Leukemia (intraperitoneal) in CD2F1 (CDF1) mice
Conditions: endpoint: median survival time, higher = longer survival
Outline: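 Mice carrying the transplanted tumor received test compound or vehicle. Survival was recorded in each group, and the value is the treated-group measurement divided by that of the vehicle-treated control group.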

[1] = dose: 25.0 mg/kg/injection, schedule: Q01DX009 (ip), vehicle: saline
[2] = dose: 50.0 mg/kg/injection, schedule: Q01DX009 (ip), vehicle: saline with Tween-80
[3] = dose: 6.25 mg/kg/injection, schedule: Q01DX009 (ip), vehicle: saline with Tween-80
[4] = dose: 12.5 mg/kg/injection, schedule: Q01DX009 (ip), vehicle: saline with Tween-80
[5] = dose: 25.0 mg/kg/injection, schedule: Q01DX009 (ip), vehicle: saline with Tween-80
[6] = dose: 100.0 mg/kg/injection, schedule: Q01DX009 (ip), vehicle: saline with Tween-80
[7] = dose: 50.0 mg/kg/injection, schedule: Q01DX005 (ip), vehicle: Klucel (hydroxypropylcellulose) (HPC)
[8] = dose: 100.0 mg/kg/injection, schedule: Q01DX005 (ip), vehicle: Klucel (hydroxypropylcellulose) (HPC)
[9] = dose: 200.0 mg/kg/injection, schedule: Q01DX005 (ip), vehicle: Klucel (hydroxypropylcellulose) (HPC)
[10] = dose: 50.0 mg/kg/injection, schedule: Q04DX003 (ip), vehicle: saline with Tween-80
[11] = dose: 100.0 mg/kg/injection, schedule: Q04DX003 (ip), vehicle: saline with Tween-80
[12] = dose: 200.0 mg/kg/injection, schedule: Q04DX003 (ip), vehicle: saline with Tween-80
[13] = dose: 50.0 mg/kg/injection, schedule: Q01DX005 (ip), vehicle: saline with Tween-80
[14] = dose: 100.0 mg/kg/injection, schedule: Q01DX005 (ip), vehicle: saline with Tween-80
[15] = dose: 200.0 mg/kg/injection, schedule: Q01DX005 (ip), vehicle: saline with Tween-80
[16] = dose: 37.5 mg/kg/injection, schedule: Q01DX009 (ip), vehicle: saline with Tween-80

Measured: T/C

COc1cc2ccnc(C3(OC(=O)c4ccccc4)CCN(CCc4ccccc4)CC3)c2cc1OC
inactive: dose: 12.5 mg/kg/injection, schedule: Q01DX009 (ip), vehicle: saline 96 % of control | [1] 92 % of control | [2] 96 % of control

O=S(=O)(Nc1ccn(-c2ccccc2)n1)c1ccc(NCc2c3ccccc3nc3cc(Cl)ccc23)cc1
inactive: dose: 60.0 mg/kg/injection, schedule: Q01DX005 (ip), vehicle: saline with Tween-80 99 % of control | dose: 120.0 mg/kg/injection, schedule: Q01DX005 (ip), vehicle: saline with Tween-80 91 % of control | dose: 240.0 mg/kg/injection, schedule: Q01DX005 (ip), vehicle: saline with Tween-80 93 % of control

CCCCCCCCCCCCCCCCSc1ccncc1NN=O
inactive: dose: 3.12 mg/kg/injection, schedule: Q01DX009 (ip), vehicle: saline with Tween-80 99 % of control | [3] 106 % of control | [4] 101 % of control | [5] 105 % of control | [2] 99 % of control and 100 % of control | [6] 113 % of control

CNC(=O)CCCCCNC(C)=O
inactive: [7] 98 % of control | [8] 95 % of control | [9] 90 % of control | dose: 400.0 mg/kg/injection, schedule: Q01DX005 (ip), vehicle: Klucel (hydroxypropylcellulose) (HPC) 97 % of control

O=C1OC(c2ccccc2)=N/C1=C\c1ccc(/C=C2/N=C(c3ccccc3)OC2=O)cc1
inactive: dose: 100.0 mg/kg/injection, schedule: Q04DX002 (ip), vehicle: saline with Tween-80 100 % of control | dose: 200.0 mg/kg/injection, schedule: Q04DX002 (ip), vehicle: saline with Tween-80 104 % of control | dose: 400.0 mg/kg/injection, schedule: Q04DX002 (ip), vehicle: saline with Tween-80 95 % of control

Cc1cc(N)c(C)c([N+](=O)[O-])c1
inactive: [10] 95 % of control | [11] 91 % of control | [12] 100 % of control

CCCCCCCCCCC1(CCCC)C(=O)NC(=O)NC1=O
inactive: [5] 110 % of control | [2] 108 % of control | [6] 110 % of control

Cc1cnc2c(N)nn(-c3ccccc3)c2n1
inactive: [11] 95 % of control | [12] 105 % of control

O=C(OCCN(CCOC(=O)c1ccc([N+](=O)[O-])cc1)c1c[nH]c(=O)[nH]c1=O)c1ccc([N+](=O)[O-])cc1
inactive: [13] 96 % of control | [14] 104 % of control | [15] 96 % of control

CC(CNC(Cc1ccccc1)c1ccccc1)NC(Cc1ccccc1)c1ccccc1 (configuration not stated)
inactive: dose: 12.5 mg/kg/injection, schedule: Q01DX005 (ip), vehicle: Klucel (hydroxypropylcellulose) (HPC) 110 % of control | dose: 25.0 mg/kg/injection, schedule: Q01DX005 (ip), vehicle: Klucel (hydroxypropylcellulose) (HPC) 102 % of control | [7] 105 % of control and 110 % of control

O=C1C=CC(=Nc2ccc(N(CCCl)CCCl)cc2)C=C1
inactive: dose: 50.0 mg/kg/injection, schedule: Q01DX009 (ip), vehicle: Klucel (hydroxypropylcellulose) (HPC) 89 % of control | dose: 100.0 mg/kg/injection, schedule: Q01DX009 (ip), vehicle: Klucel (hydroxypropylcellulose) (HPC) 89 % of control

CC1=CNC(=O)CC(C)(C)C1
inactive: [13] 105 % of control | [14] 105 % of control | [15] 104 % of control

CN(C)CCCN1c2ccc(O)cc2Sc2ccc(Cl)cc21
inactive: dose: 25.0 mg/kg/injection, schedule: Q04DX003 (ip), vehicle: saline with Tween-80 100 % of control | [10] 95 % of control | [11] 95 % of control

CC(=O)c1cc(C)oc1C
inactive: [1] 100 % of control | dose: 50.0 mg/kg/injection, schedule: Q01DX009 (ip), vehicle: saline 100 % of control and 111 % of control and 112 % of control | dose: 100.0 mg/kg/injection, schedule: Q01DX009 (ip), vehicle: saline 109 % of control and 111 % of control and 112 % of control | dose: 400.0 mg/kg/injection, schedule: Q01DX009 (ip), vehicle: saline 116 % of control

CCCC(NC(=O)OCc1ccccc1)C(=O)NC(Cc1ccc(O)cc1)C(=O)O (configuration not stated) (Cbz-[Nva]-Tyr-OH; configuration not given here)
inactive: [7] 102 % of control | [8] 105 % of control | [9] 94 % of control

CN(C)/N=C(\N)c1nnn(C)n1
inactive: dose: 50.0 mg/kg/injection, schedule: Q01DX001 (ip), vehicle: Klucel (hydroxypropylcellulose) (HPC) 106 % of control | dose: 100.0 mg/kg/injection, schedule: Q01DX001 (ip), vehicle: Klucel (hydroxypropylcellulose) (HPC) 101 % of control | dose: 200.0 mg/kg/injection, schedule: Q01DX001 (ip), vehicle: Klucel (hydroxypropylcellulose) (HPC) 100 % of control

O=C/C(=N/Nc1ccc([N+](=O)[O-])cc1)c1ccccc1
inactive: [16] 94 % of control | dose: 75.0 mg/kg/injection, schedule: Q01DX009 (ip), vehicle: saline with Tween-80 90 % of control | dose: 150.0 mg/kg/injection, schedule: Q01DX009 (ip), vehicle: saline with Tween-80 86 % of control

CC(=O)OCC1OC([Se][As](C)C)C(OC(C)=O)C(OC(C)=O)C1OC(C)=O (configuration not stated)
inactive: dose: 1.56 mg/kg/injection, schedule: Q01DX009 (ip), vehicle: saline with Tween-80 95 % of control | dose: 3.13 mg/kg/injection, schedule: Q01DX009 (ip), vehicle: saline with Tween-80 95 % of control | [3] 99 % of control | dose: 11.0 mg/kg/injection, schedule: Q01DX009 (ip), vehicle: saline with Tween-80 104 % of control | [4] 99 % of control | dose: 16.6 mg/kg/injection, schedule: Q01DX009 (ip), vehicle: saline with Tween-80 110 % of control | [16] 119 % of control

O=C(O)c1c[nH]c2cc(OCCOc3ccc(Br)cc3)ccc2c1=O
inactive: [11] 87 % of control | [12] 93 % of control | dose: 400.0 mg/kg/injection, schedule: Q04DX003 (ip), vehicle: saline with Tween-80 91 % of control

CC(=O)NC(c1nc2cc(C)c(C)cc2[nH]1)c1nc2cc(C)c(C)cc2[nH]1
inactive: [7] 101 % of control | [8] 106 % of control | [9] 110 % of control

CC(NC(=O)C(N)CSSCC(N)C(=O)NC(C)C(=O)O)C(=O)O (stereo not drawn) (I: H-Cys-Ala-OH / II: H-Cys-Ala-OH; disulfide I:1-II:1; configuration not given here)
inactive: [7] 100 % of control | [8] 104 % of control | [9] 110 % of control

OC(CCl)Cn1nc2ccccc2n1 (configuration not stated)
inactive: [7] 96 % of control | [8] 105 % of control | dose: 100.0 mg/kg/injection, schedule: Q04DX003 (ip), vehicle: Klucel (hydroxypropylcellulose) (HPC) 99 % of control | [9] 103 % of control | dose: 200.0 mg/kg/injection, schedule: Q04DX003 (ip), vehicle: Klucel (hydroxypropylcellulose) (HPC) 99 % of control | dose: 400.0 mg/kg/injection, schedule: Q04DX003 (ip), vehicle: Klucel (hydroxypropylcellulose) (HPC) 93 % of control

C1CCC(N2CSC3CCCCC32)CC1 (configuration not stated)
inactive: dose: 60.0 mg/kg/injection, schedule: Q01DX005 (ip), vehicle: Klucel (hydroxypropylcellulose) (HPC) 95 % of control | dose: 120.0 mg/kg/injection, schedule: Q01DX005 (ip), vehicle: Klucel (hydroxypropylcellulose) (HPC) 97 % of control

O=C1[N-]C(=S)c2cccn21.O=C1[N-]C(=S)c2cccn21.[Pt+2]
inactive: dose: 6.25 mg/kg/injection, schedule: Q01DX005 (ip), vehicle: saline with Tween-80 104 % of control | dose: 12.5 mg/kg/injection, schedule: Q01DX005 (ip), vehicle: saline with Tween-80 107 % of control | dose: 25.0 mg/kg/injection, schedule: Q01DX005 (ip), vehicle: saline with Tween-80 105 % of control | [13] 105 % of control
